Measurements as given in PubChem BioAssay AID1259407 (Chemical Carcinogenesis Research Information System (CCRIS), 2018).
The source made the active and inactive calls. The rule behind the calls is not given here.

Tested on: CCRIS mutagenicity, Ames/micronucleus/aberration tests
Test: CCRIS mutagenicity studies
[1] = Test System: AMES SALMONELLA TYPHIMURIUM, Strain/Indicator: TA100, Metabolic Activation: NONE, Method: PREINCUBATION
[2] = Test System: AMES SALMONELLA TYPHIMURIUM, Strain/Indicator: TA97, Metabolic Activation: NONE, Method: STANDARD PLATE
[3] = Test System: AMES SALMONELLA TYPHIMURIUM, Strain/Indicator: TA98, Metabolic Activation: NONE, Method: STANDARD PLATE
[4] = Test System: AMES SALMONELLA TYPHIMURIUM, Strain/Indicator: TA100, Metabolic Activation: NONE, Method: STANDARD PLATE
[5] = Test System: AMES SALMONELLA TYPHIMURIUM, Strain/Indicator: TA102, Metabolic Activation: NONE, Method: STANDARD PLATE

CC/C=C/C=C/C=C/C=C/C=C\OC[C@@H](O)CO
mutagenic call [1]: active; positive
mutagenic call (Test System: AMES SALMONELLA TYPHIMURIUM, Strain/Indicator: TA100, Metabolic Activation: RAT, LIVER, S-9, AROCLOR 1254, Method: PREINCUBATION): active; positive

CCOc1ccc(C(C)(C)C)cc1NC(=O)C(=O)Nc1ccccc1CC
mutagenic call [2]: inactive; negative
mutagenic call (Test System: AMES SALMONELLA TYPHIMURIUM, Strain/Indicator: TA97, Metabolic Activation: S-9, Method: STANDARD PLATE): inactive; negative
mutagenic call [3]: inactive; negative
mutagenic call (Test System: AMES SALMONELLA TYPHIMURIUM, Strain/Indicator: TA98, Metabolic Activation: S-9, Method: STANDARD PLATE): inactive; negative
mutagenic call [4]: inactive; negative
mutagenic call (Test System: AMES SALMONELLA TYPHIMURIUM, Strain/Indicator: TA100, Metabolic Activation: S-9, Method: STANDARD PLATE): inactive; negative
mutagenic call [5]: inactive; negative
mutagenic call (Test System: AMES SALMONELLA TYPHIMURIUM, Strain/Indicator: TA102, Metabolic Activation: S-9, Method: STANDARD PLATE): inactive; negative
mutagenic call (Test System: E.COLI, Strain/Indicator: WP2 (PKM101), Metabolic Activation: NONE, Method: STANDARD PLATE): inactive; negative
mutagenic call (Test System: E.COLI, Strain/Indicator: WP2 (PKM101), Metabolic Activation: S-9, Method: STANDARD PLATE): inactive; negative

O[C@@H]1[C@@H]2O[C@@H]2c2c(ccc3cc4c(ccc5ccccc54)nc23)[C@H]1O
mutagenic call (Test System: AMES SALMONELLA TYPHIMURIUM, Strain/Indicator: TA98, Metabolic Activation: NONE, Method: PREINCUBATION): active; positive
mutagenic call [1]: active; positive
mutagenic call (Test System: CHINESE HAMSTER V-79, Strain/Indicator: V-79/8-AZAGUANINE, Metabolic Activation: NONE): active; positive

Fc1ccccn1
mutagenic call [2]: inactive; negative
mutagenic call (Test System: AMES SALMONELLA TYPHIMURIUM, Strain/Indicator: TA97, Metabolic Activation: RAT, LIVER, S-9, AROCLOR 1254, Method: STANDARD PLATE): inactive; negative
mutagenic call [3]: inactive; negative
mutagenic call (Test System: AMES SALMONELLA TYPHIMURIUM, Strain/Indicator: TA98, Metabolic Activation: RAT, LIVER, S-9, AROCLOR 1254, Method: STANDARD PLATE): active; positive
mutagenic call [4]: inactive; negative
mutagenic call (Test System: AMES SALMONELLA TYPHIMURIUM, Strain/Indicator: TA100, Metabolic Activation: RAT, LIVER, S-9, AROCLOR 1254, Method: STANDARD PLATE): inactive; negative
mutagenic call [5]: inactive; negative
mutagenic call (Test System: AMES SALMONELLA TYPHIMURIUM, Strain/Indicator: TA102, Metabolic Activation: RAT, LIVER, S-9, AROCLOR 1254, Method: STANDARD PLATE): inactive; negative
